Assay results published in a melting point compilation (Tetko et al.; mined from patent text by program, amines drawn as free bases though some values may be those of a salt).

SMILES | melting point [°C]
Cc1noc(-c2ccc(C(=O)O)s2)n1 | 226 to 228
CCN(CC)c1ccc([N+](=O)[O-])cn1 | 75 to 76
Clc1cc(Cl)c2c(c1)CCC(N1CCCC1)=C2 | 84.5 to 85.5
Cc1ccc(S(=O)(=O)OCC2Cc3cccc(C=Cc4ccccc4)c3O2)cc1 (configuration not stated) | 120 to 122
O=C(NC(Cc1ccc(OCc2ccccc2)cc1)C(=O)O)c1cn2cccc(OCc3ccc(Cl)cc3)c2n1 (configuration not stated) | 210
Cc1cc(-c2noc(C3CC3)n2)cc(C)c1OCCCc1cc(O)no1 | 155 to 156
CCCCCN(CCCCC)CCCOC(=O)c1ccc2c(c1)-c1ccc(C(=O)OCCCN(CCCCC)CCCCC)c3cccc-2c13 | 148 to 151
COC(=O)c1cc(C(=O)NC2CCCC2)c2cc(Cc3ccc(F)cc3)cnc2c1O | 221 to 222
C=C1CC(COc2cccc3cccnc23)(c2ccccc2)OC1=O (configuration not stated) | 101 to 102
CNc1c(OC)cc(C(O)CS(C)(=O)=O)cc1OC (configuration not stated) | 141 to 142
CC1CC2C3CCC4=CC(=O)CCC4(C)C3=CCC2(C)C1(O)C(=O)CO (configuration not stated) | 167 to 168
COC(=O)c1cccc2c(C#N)c(OC)ccc12 | 210 to 211
COc1ccc(C(=O)c2sc(Nc3ccccc3)nc2NC(=O)Nc2ccc(F)cc2)cc1 | 177 to 178
CN1CC[C@@H](c2c(O)cc(O)c3c(=O)cc(-c4cc(O)ccc4Cl)oc23)[C@@H]1CO | 220 to 221
Nc1ncc2ncn(OCC(O)CO)c2n1 (configuration not stated) | 183 to 185
N#Cc1ccc(OC[C@H]2C[C@@H](O)CN2c2ccc(C#N)c3ccccc23)c2ccccc12 | 123 to 126
N#Cc1ccc2cc(S)ccc2c1 | 113 to 115
COc1ccc(-c2ccc(C(=O)Nc3ccc4cc(CN5CCCCCC5)cnc4c3C)c(F)c2)cc1 | 171 to 172
O=c1c2cc(F)ccc2nc(CSc2ncnc3[nH]cnc23)n1-c1ccccc1Cl | 233
Cc1cc(C)c(-c2cn(C)c3nc(NC(=O)N(C)C)n(C)c(=O)c23)c(C)c1 | 221 to 223
CC(=O)NCC1OCC(Cc2ccc(Cl)cc2)CO1 (configuration not stated) | 95
CN(C(=O)OCc1ccccc1)C1CCN(CC2(C)Cn3cc([N+](=O)[O-])nc3O2)CC1 (configuration not stated) | 139
CCc1nn(C2CN(C(C)C)C2)c(C(N)=O)c1N | 150 to 156
NC1(C2CCCC2=O)OCCO1 (configuration not stated) | 134 to 136
Cc1c(-c2ccc(O)cc2)n(Cc2ccc(OCCN3CCC(C)CC3)cc2)c2ccc(O)cc12 | 154 to 162
Cc1ccc(SCc2ncon2)cc1 | 53

SMILES | melting point [°C]
CCc1cn2ccccc2c1S(=O)(=O)c1ccc(OS(=O)(=O)c2ccc(C)cc2)c(C)c1 | 164
CCOc1ncc(C(C)=O)cc1C(=O)Nc1c(C(N)=O)nn(C2CN(CC)C2)c1CC | 230 to 233
CC(=O)NC[C@H]1CN(c2cc(F)c(N3CCC(n4ncn(C)c4=S)CC3)c(F)c2)C(=O)O1 | 168 to 170
CN(CC(=O)N(C)c1ccc(OCC(=O)N[C@@H](CC(N)=O)C(=O)[C@@H](C(N)c2ccccc2)[C@H](O)C(=O)N2CCC[C@H]2C(=O)NC(C)(C)C)cc1)c1ccccc1 (some centres not stated) | 107 to 112
O=C(O)C1=Cc2cc(O)ccc2S(=O)(=O)CC1 | 260 to 265
CNC(=O)c1ccc(OCC(O)CNC(C)C)nc1 (configuration not stated) | 118 to 120
CC(=O)N1CCC(C)(C)C2=C1CCc1cc(Cl)ccc12 | 126 to 127
CC1SC(c2cccnc2)N(C2CCCCC2)C1=O (configuration not stated) | 120 to 125
COC(=O)c1cccn2c(C(=O)c3ccc(N4C[C@H](CNC(C)=O)OC4=O)cc3)cnc12 | 202 to 204
CC(=O)Nc1c(O)cc(C(=O)O)cc1[N+](=O)[O-] | 215 to 220
CC(C)n1cc(C=O)c(-c2ccc([N+](=O)[O-])o2)n1 | 168 to 170
CCOC(=O)c1ccc(-c2c(Cl)c(CN3C(=O)CCC3=O)nc3sc4c(c23)CCN(C(=O)OCc2ccccc2)C4)cc1 | 198 to 199
CC1(C)CCC(C)(C)c2cc(C(=O)CNc3ccc(C(=O)O)cc3)ccc21 | 168 to 169
COC1OCC2C(=O)C3CCCCC3CC12 (configuration not stated) | 78 to 79
CC(C)(CNc1ccnc2cc(Cl)ccc12)NCc1ccc(Cl)cc1Cl | 138 to 139
CC(=O)NCC(=O)Nn1cccc1C(=O)c1ccccc1F | 146 to 147
N#Cc1c(N2CCN(C(=O)c3cccs3)CC2)c2cscc2n(CC(=O)c2ccccc2)c1=O | 308
Cc1c(C(=O)Nc2ccc(N3CCC(N4CCOCC4)CC3)c([N+](=O)[O-])c2)cnn1-c1ccc(Cl)cc1 | 195 to 200
COc1ccc(N2CCN(Cc3n[nH]c4cc(Cl)ccc34)CC2)cc1 | 182 to 184
COc1cc(O)c(-c2ccccc2)nn1 | 204 to 209
CC(C)(C)c1cc(=O)o[nH]1 | 110 to 115
Nc1ncc(Sc2cccnc2)s1 | 140 to 142
COc1cc(Nc2nccc(-c3ccc(N)s3)n2)cc(OC)c1OC | 161 to 162
COc1ccc(F)c([C@@H]2C[C@H]2CNC(=O)C(C)C)c1 (relative stereo) | 56 to 57
CC(=O)c1ccc(OCCCOc2ccc(C(=O)C(=O)O)cc2)cc1O | 133 to 135
Cc1ccc(C(=C(C=CC(O)CC(=O)CC(=O)OC(C)(C)C)c2nnnn2C)c2ccc(C)cc2F)c(F)c1 (configuration not stated) | 55 to 63
